Source: patent publication US7727950B2, “Methods and reagents for assaying protein kinase activity” (The University of Dundee, priority 2002, dated 2010)
Square brackets hold non-standard residues; d marks the D form. Ends that are not written are not given here. pS = N[C@@H](COP(=O)(O)O)C(=O)O

Columns and labels:
[1] = test system: peptide LpSFAEPGC conjugated to bovine serum albumin; assay: Immunoblot of phospho-specific antibody with peptide competition (FIG. 1); type: binding; conditions: competition studies
Experimental: Aliquots (10 ng or 100 ng) of the peptide LpSFAEPGC (SEQ ID NO: 17) conjugated to bovine serum albumin were spotted on to a nitrocellulose membrane and immunoblotted with the phospho-specific antibody raised against the phospho-peptide immunogen in the presence or absence of the peptides shown on the right. The prefix “p” before S denotes the serine-phosphorylated form of the peptide.
Antibodies that recognise the common seven residue phosphorylated motif (LpSFAEPG) (SEQ ID NO:7) contained within each of the three generic peptide substrates described under results, were raised against the peptide LpSFAEPGC (SEQ ID NO:17) (where pS represents phosphoserine). The C-terminal cysteine residue was added to enable coupling to keyhole limpet haemocyanin. The peptide-protein conjugate was injected into sheep at Diagnostic Scotland (Carluke, U.K.) and the anti-sera purified on protein G-Sepharose (Amersham Pharmacia Biotech) by Dr J. Leitch in this Unit. Antibodies were used at a concentration of 2 μg/ml for immunoblotting and 10-20 μg/ml for detection of phosphorylated peptides in the modified ELISA format. Rabbit anti-sheep antibodies conjugated to peroxidase were obtained from Pierce (Tattenhall, Cheshire, UK) and used at 1/10,000 dilution. […]

CHK1 = molecular target: T1, CHK1 (Homo sapiens, UniProt O14757); assay: Kinetic parameters for peptide phosphorylation, radioactive filter-binding assay; type: biochemical; conditions: Standard Substrate = KKKVSRSGLYRSPSMPENLNRPR
T1 construct: made in house; host or cells: Sf21 insect cells
T1 sequence (O14757 1-476): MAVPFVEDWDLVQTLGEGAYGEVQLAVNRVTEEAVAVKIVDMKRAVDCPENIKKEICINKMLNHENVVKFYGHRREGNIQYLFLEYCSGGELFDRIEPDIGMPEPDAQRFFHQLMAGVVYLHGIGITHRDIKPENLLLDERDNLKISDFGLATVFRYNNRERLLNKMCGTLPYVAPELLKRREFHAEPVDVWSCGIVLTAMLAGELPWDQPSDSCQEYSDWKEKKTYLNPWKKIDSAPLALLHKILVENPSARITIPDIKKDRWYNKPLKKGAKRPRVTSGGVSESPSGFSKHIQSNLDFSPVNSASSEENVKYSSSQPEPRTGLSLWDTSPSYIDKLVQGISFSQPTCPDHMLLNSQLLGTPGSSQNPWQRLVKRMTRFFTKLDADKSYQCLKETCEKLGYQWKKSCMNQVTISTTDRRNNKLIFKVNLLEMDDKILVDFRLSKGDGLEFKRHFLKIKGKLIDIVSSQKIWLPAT
Description: (§1) Apart from the AMP-activated protein kinase (AMPK, a gift from Drs S. Hawley and D. G. Hardie), cGMP-dependent protein kinase (PKG, a generous gift from Drs Susan Lohmann and Ulrich Walter, University of Wurzburg, Germany) and the catalytic subunit of cyclic AMP-dependent protein kinase (PKA, a gift from Dr C. Smythe), which were isolated from rat liver, bovine lung and bovine heart, respectively, all other protein kinases were expressed as either GST-fusion or His-tagged proteins (by a person, a person, Dr A. Paterson or a person, in this Division). The expressed proteins all corresponded to the human sequences apart from the rat Rho-dependent protein kinase (ROCK-II) and rat mitogen-activated protein kinase (MAPK) activated kinase-1a (MAPKAP-K1a, also called RSK). GST-fusion proteins were purified on GSH-agarose (Amersham Pharmacia Biotech, Amersham, UK) and His-tagged proteins on Ni-NTA agarose (Qiagen) essentially according to the manufacturer's instructions. All the protein kinases used in this study are available from Upstate Biotechnology Inc. (Lake Placid, N.Y., USA), apart from the α-isoform of calmodulin-dependent protein kinase II (CaMKII), MAPKAP-K3 and PKG. […]
(§2) All protein kinase assays were linear with respect to time. […] All papers were subsequently washed a further three times in phosphoric acid, once in acetone, then dried and counted for radioactivity. […] The plates were then washed six times (five min per wash) in PBS, 0.1% Tween 20 and binding of the phospho-specific antibody detected by incubating the plates with peroxidase-conjugated anti-sheep antibodies (Pierce). […] Signals were quantitated on LAS-1000IR software (FujiFilm). […]

CHK2 = molecular target: T2, CHK2 (Homo sapiens, UniProt O96017); assay: as above; type: biochemical; conditions: Standard Substrate = KKKVSRSGLYRSPSMPENLNRPR
T2 construct: an additional His-tag at the extreme C-terminus, to aid purification of the full-length product; GST; His-tag (C); made in house; host or cells: E. coli
Description: as §1, with “RSK).” for “RSK). GST-fusion proteins were purified on GSH-agarose (Amersham Pharmacia Biotech, Amersham, UK) and His-tagged proteins on Ni-NTA agarose (Qiagen) essentially according to the manufacturer's instructions. All the protein kinases used in this study are available from Upstate Biotechnology Inc. (Lake Placid, N.Y., USA), apart from the α-isoform of calmodulin-dependent protein kinase II (CaMKII), MAPKAP-K3 and PKG.”
as §2

ROCKII = molecular target: T3, ROCKII (Rattus norvegicus, UniProt Q62868); assay: as above; type: biochemical; conditions: Standard Substrate = KEAKEKRQEQIAKRRRLSSLRASTSKSGGSQK
T3 construct: rat ROCKII[1-543]; made in house; host or cells: Sf21 insect cells
Description: as §1, §2

PKCα = molecular target: T4, PKCα (Homo sapiens, UniProt P17252); assay: as above; type: biochemical; conditions: Standard Substrate = histone H1
T4 construct: purchased Calbiochem Novachem Corp; host or cells: Sf21 insect cells
Description: as §1, §2

T2 sequence (O96017 whole entry): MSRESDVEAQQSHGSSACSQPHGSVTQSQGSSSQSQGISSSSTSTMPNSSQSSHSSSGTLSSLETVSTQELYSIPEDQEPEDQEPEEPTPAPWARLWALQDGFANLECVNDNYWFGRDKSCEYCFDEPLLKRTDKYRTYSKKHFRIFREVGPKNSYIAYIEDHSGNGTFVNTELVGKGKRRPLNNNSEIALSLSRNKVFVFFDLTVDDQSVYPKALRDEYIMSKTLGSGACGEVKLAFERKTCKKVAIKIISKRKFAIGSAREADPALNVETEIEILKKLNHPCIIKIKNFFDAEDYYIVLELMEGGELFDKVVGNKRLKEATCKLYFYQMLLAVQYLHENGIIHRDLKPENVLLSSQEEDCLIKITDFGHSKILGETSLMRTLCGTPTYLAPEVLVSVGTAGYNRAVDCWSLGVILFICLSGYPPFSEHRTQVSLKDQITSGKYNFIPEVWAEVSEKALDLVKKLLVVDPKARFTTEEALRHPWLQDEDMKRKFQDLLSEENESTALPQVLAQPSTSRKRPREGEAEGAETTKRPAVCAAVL
T3 sequence (Q62868 1-543): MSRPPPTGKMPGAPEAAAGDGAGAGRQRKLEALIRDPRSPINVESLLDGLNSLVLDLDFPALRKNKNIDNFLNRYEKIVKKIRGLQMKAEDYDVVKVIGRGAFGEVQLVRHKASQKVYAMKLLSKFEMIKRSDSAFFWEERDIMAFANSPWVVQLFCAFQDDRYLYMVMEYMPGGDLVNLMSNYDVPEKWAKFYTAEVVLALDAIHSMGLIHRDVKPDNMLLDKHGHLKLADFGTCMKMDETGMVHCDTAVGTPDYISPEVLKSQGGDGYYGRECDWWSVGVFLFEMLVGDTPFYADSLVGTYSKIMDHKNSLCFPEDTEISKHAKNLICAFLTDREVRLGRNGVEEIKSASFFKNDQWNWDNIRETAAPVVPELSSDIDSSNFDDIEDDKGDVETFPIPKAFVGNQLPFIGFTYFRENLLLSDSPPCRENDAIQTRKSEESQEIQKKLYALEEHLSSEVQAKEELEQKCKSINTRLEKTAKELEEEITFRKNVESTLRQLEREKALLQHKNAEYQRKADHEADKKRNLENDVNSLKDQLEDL

Substance: LpSFAEPG (L[pS]FAEPG) [seven residue phospho-peptide antigen, pS is phosphoserine]
- neutralisation of the phosphopeptide antibody by pre-incubation with peptide [1]: neutralised

Substance: RARTLSFAEPG
- Km (CHK1): 5 µM
- Km (CHK2): > 300 µM

Substance: RRRLSFAEPG
- Km (ROCKII): > 100 µM
- Km (PKCα): > 500 µM
